Among the test systems are HCT-15 colon; CCRF-CEM leukemia; OVCAR-5 ovarian; SNB-75 CNS; OVCAR-8 ovarian; M14 melanoma; NCI-H460 lung; MALME-3M melanoma; SN12C renal; HCT-116 colon.
Test in all cases: NCI anticancer screen, dose series, 48 h

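Test compounds were applied to cells in 96-well plates for 48 hours at 5 doses. Here, GI50 denotes the concentration required for 50% inhibition of growth. TGI: total growth inhibition.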

Eight compounds from PubChem BioAssay (NCI) can be followed below.

With `CCN1CCN(c2cc(C)nc(NCc3cc(Nc4ccnc5cc(Cl)ccc45)ccc3F)n2)CC1`, the GI50 in the assay on HCT-15 colon is 2190 nM; with CCRF-CEM leukemia, 2550 nM; with OVCAR-5 ovarian, 1670 nM; in the assay with SNB-75 CNS, 10500 nM; with OVCAR-8 ovarian it was 4110 nM; with M14 melanoma, 1720 nM. The GI50 is 2830 nM with NCI-H460 lung, 1950 nM in the assay with MALME-3M melanoma, 4480 nM in the assay on SN12C renal and 1200 nM in the assay with HCT-116 colon. For the same compound, the TGI is 11700 nM in the assay on HCT-15 colon; greater than 100000 nM in the assay on CCRF-CEM leukemia; 17700 nM with OVCAR-5 ovarian; 30800 nM with SNB-75 CNS; greater than 100000 nM with OVCAR-8 ovarian; 3400 nM in the assay on M14 melanoma. Also, the TGI with NCI-H460 lung was 12100 nM; in the assay on MALME-3M melanoma, 3910 nM; with SN12C renal, 27000 nM; in the assay with HCT-116 colon, 4100 nM.
On to `CCCCCCCCCCC(CN(CC)CC)C(O)c1ccccc1` (stereo not given), for which the GI50 in the assay with HCT-15 colon was 1310 nM; in the assay on CCRF-CEM leukemia, 1820 nM; in the assay with OVCAR-5 ovarian it was 1780 nM; in the assay with SNB-75 CNS, 1330 nM; in the assay with OVCAR-8 ovarian it was 2370 nM; with M14 melanoma, 1740 nM. The GI50 in the assay with NCI-H460 lung was 1880 nM; in the assay with MALME-3M melanoma, 1950 nM; with SN12C renal, 2110 nM; in the assay on HCT-116 colon, 1720 nM. Besides, the TGI was 2770 nM in the assay on HCT-15 colon; 4890 nM in the assay with CCRF-CEM leukemia; 3490 nM in the assay on OVCAR-5 ovarian; 2700 nM in the assay with SNB-75 CNS; 5830 nM with OVCAR-8 ovarian; 3400 nM in the assay with M14 melanoma. For the same compound, the TGI came out at 3500 nM with NCI-H460 lung, 3850 nM in the assay with MALME-3M melanoma, 5690 nM in the assay on SN12C renal and 3370 nM in the assay on HCT-116 colon.
Turning to `COC(=O)C1=C2CO[C@@H]3C[C@H]4C(C)(C)CCC[C@]4(C)C(=CC1)[C@]23C`, the GI50 is 41700 nM with HCT-15 colon; 21600 nM with CCRF-CEM leukemia; 21800 nM in the assay on OVCAR-5 ovarian; 20400 nM in the assay with SNB-75 CNS; 40200 nM in the assay on OVCAR-8 ovarian; 32600 nM in the assay on M14 melanoma. The GI50 with NCI-H460 lung was 51100 nM; in the assay on MALME-3M melanoma, 12100 nM; in the assay on SN12C renal, 35100 nM; in the assay on HCT-116 colon it was 22500 nM. Further, the TGI was greater than 100000 nM in the assay with HCT-15 colon; 46400 nM in the assay with CCRF-CEM leukemia; greater than 100000 nM with OVCAR-5 ovarian; 50900 nM in the assay on SNB-75 CNS; greater than 100000 nM in the assay with OVCAR-8 ovarian; greater than 100000 nM in the assay on M14 melanoma. Further, the TGI was greater than 100000 nM with NCI-H460 lung, 68500 nM in the assay on MALME-3M melanoma, greater than 100000 nM with SN12C renal and 51300 nM in the assay with HCT-116 colon.
On to `NC(=O)C12CCC1C1CCCCC12N1CCOCC1` (stereo not given), for which the TGI in the assay with HCT-15 colon, with CCRF-CEM leukemia, in the assay with OVCAR-5 ovarian, in the assay with SNB-75 CNS, with OVCAR-8 ovarian and in the assay with M14 melanoma was greater than 100000 nM in each case. The TGI with NCI-H460 lung, in the assay on MALME-3M melanoma, in the assay with SN12C renal and with HCT-116 colon was greater than 100000 nM throughout.
`COc1ccc(-c2cc3nccn3c(Nc3ncccc3C(N)=O)n2)cc1OC`: the GI50 was 659 nM with HCT-15 colon; 827 nM in the assay with CCRF-CEM leukemia; greater than 100000 nM with OVCAR-5 ovarian; 1040 nM in the assay with SNB-75 CNS; 955 nM in the assay on OVCAR-8 ovarian; greater than 65700 nM in the assay on M14 melanoma. For the same compound, the GI50 is 2190 nM in the assay with NCI-H460 lung, greater than 100000 nM in the assay with MALME-3M melanoma, 1050 nM with SN12C renal and 516 nM with HCT-116 colon. Also, the TGI in the assay on HCT-15 colon, with CCRF-CEM leukemia, in the assay on OVCAR-5 ovarian, in the assay with SNB-75 CNS, with OVCAR-8 ovarian and in the assay with M14 melanoma was greater than 100000 nM each time. Also, the TGI was greater than 100000 nM with NCI-H460 lung, greater than 100000 nM with MALME-3M melanoma, greater than 100000 nM in the assay on SN12C renal and greater than 47400 nM in the assay on HCT-116 colon.
Consider `NCCCn1c2c(c3ccc([N+](=O)[O-])cc3c1=O)C(=O)c1cc(Cl)ccc1-2`, for which the GI50 in the assay on HCT-15 colon was 28.5 nM; in the assay on CCRF-CEM leukemia it was less than 10 nM; in the assay with OVCAR-5 ovarian, 26.5 nM; with SNB-75 CNS it was less than 10 nM; in the assay on OVCAR-8 ovarian, less than 10 nM; in the assay on M14 melanoma it was less than 10 nM. Besides, the GI50 with NCI-H460 lung, with MALME-3M melanoma, with SN12C renal and in the assay with HCT-116 colon was less than 10 nM each time. The TGI in the assay with HCT-15 colon turned out to be 208 nM; in the assay with CCRF-CEM leukemia, 10.4 nM; with OVCAR-5 ovarian, 193 nM; in the assay with SNB-75 CNS, 1200 nM; in the assay with OVCAR-8 ovarian it was 109 nM; in the assay on M14 melanoma, 31.8 nM. Besides, the TGI with NCI-H460 lung worked out at 128 nM; in the assay with MALME-3M melanoma it was 195 nM; in the assay with SN12C renal, 146 nM; in the assay on HCT-116 colon, 18.2 nM.
As to `C[C@@H]1CCC2[C@@H](C)[C@H](OC(=O)CCC(=O)NCCNC(=O)Cc3cc(=O)oc4cc(N(C)C)ccc34)O[C@@H]3O[C@]4(C)CC[C@@H]1C23OO4` (stereo not given in full), the GI50 with HCT-15 colon was 318 nM; in the assay on CCRF-CEM leukemia it was 1570 nM; in the assay with OVCAR-5 ovarian, 1280 nM; with SNB-75 CNS, 8220 nM; in the assay on OVCAR-8 ovarian, 906 nM; with M14 melanoma, 2130 nM. In addition, the GI50 in the assay on NCI-H460 lung was 2430 nM; with MALME-3M melanoma it was 2020 nM; in the assay on SN12C renal, 4040 nM; in the assay with HCT-116 colon, 323 nM. Moreover, the TGI in the assay with HCT-15 colon is 21000 nM; in the assay with CCRF-CEM leukemia, greater than 75700 nM; in the assay on OVCAR-5 ovarian, greater than 76900 nM; in the assay with SNB-75 CNS it was 29200 nM; with OVCAR-8 ovarian it was greater than 47800 nM; in the assay on M14 melanoma it was greater than 74500 nM. The TGI was 19200 nM with NCI-H460 lung, greater than 100000 nM in the assay with MALME-3M melanoma, greater than 100000 nM in the assay with SN12C renal and 12800 nM with HCT-116 colon.
As for `CC1(C)CC(O)CCCCCCOc2c(CN)cccc2NC(=O)c2nc(cnc2N)-c2ccc(cc2)S1(=O)=O` (stereo not given), the GI50 with HCT-15 colon was 263 nM; in the assay on CCRF-CEM leukemia it was less than 10 nM; with OVCAR-5 ovarian, 2810 nM; in the assay on SNB-75 CNS, 223 nM; in the assay on OVCAR-8 ovarian, 2140 nM; in the assay with M14 melanoma it was 92.7 nM. The GI50 in the assay with NCI-H460 lung was less than 19.2 nM; with MALME-3M melanoma it was 1310 nM; with SN12C renal it was 761 nM; in the assay on HCT-116 colon, 187 nM. Also, the TGI with HCT-15 colon was 2560 nM; with CCRF-CEM leukemia, 5530 nM; with OVCAR-5 ovarian, 6340 nM; in the assay on SNB-75 CNS, 1740 nM; in the assay on OVCAR-8 ovarian, 5870 nM; in the assay on M14 melanoma it was 2580 nM. The TGI with NCI-H460 lung was 2310 nM; with MALME-3M melanoma, 2810 nM; in the assay with SN12C renal, 2490 nM; in the assay with HCT-116 colon, 1030 nM.
